This is an account of results in patent US10624968B2, “Compounds for treating cancer” (Bicycle Therapeutics Limited, priority 2017, dated 2020).

Data set [1] concerns EBC-1. The data set is described as follows: cells. The conditions noted are these: read-out: Re IC50; EBC-1; 72 hours. An excerpt: (§1) Details of the initial cell plating procedure are described in Table 3.
(§2) Data Details for Tables 5 and 6. Inhibition %=(Max−Sample value)/(Max−Min)*100.
(§3) The IC50 curves were generated by 4 Parameter Logistic Model—Sigmoidal Dose-Response Model as follows: Y=Bottom+(Top−Bottom)/(1+10^((log EC50-X)*HillSlope)).

In data set [2] the test system is MOLP-8. Kind of data set: cells. The conditions noted are these: read-out: Re IC50; MOLP-8; 72 hours.
From the text: as §1, §2, §3

The subject of data set [3] is HCT15. Kind of data set: cells. The conditions noted are these: read-out: Re IC50; HCT15; 72 hours.
From the text: as §1, §2, §3

The subject of data set [4] is HT29. The data set is described as follows: cells. The conditions noted are these: read-out: Re IC50; HT29; 72 hours.
From the text: as §1, §2, §3

In data set [5] the test system is HCC1806. The data set is described as follows: cells. The settings on record: read-out: Re IC50; HCC1806; 72 hours.
From the text: as §1, §2, §3

Data set [6] concerns HT1080. Kind of data set: cells. The conditions noted are these: read-out: Re IC50; HT1080; 72 hours.
From the text: as §1, §2, §3

Data set [7] concerns NCI-H292. The data set is described as follows: cells. The conditions noted are these: read-out: Re IC50; NCI-H292; 72 hours.
From the text: as §1, §2, §3

For data set [8], the system named is MDA-MB-231. Kind of data set: cells. The settings on record: read-out: Re IC50; MDA-MB-231; 72 hours.
From the text: as §1, §2, §3

For data set [9], the system named is NCI-H1975. Kind of data set: cells. The conditions noted are these: read-out: Re IC50; NCI-H1975; 72 hours.
From the text: as §1, §2, §3

The test system of data set [10] is SNU-16. Kind of data set: cells. The conditions noted are these: read-out: Re IC50; SNU-16; 72 hours.
From the text: as §1, §2, §3

Data set [11] has as its system PC-3. Kind of data set: cells. The settings on record: read-out: Re IC50; PC-3; 72 hours.
From the text: as §1, §2, §3

In data set [12] the test system is 11 tumor cell lines. Kind of data set: 11 cancer cell line panel cytotoxicity, statements on the whole panel. The settings on record: all tested cell lines; 72 hours.
From the text: as §1, §2, §3

Data set [13] is described as follows: Plasma stability (LC-MS/MS assay), human plasma. Format: in vitro ADME. The conditions noted are these: pH 7.4 at 37° C. As for the experimental part: I-1a plasma stability studies were conducted in human and mouse plasma.
In vitro plasma stability assay measures the extent of degradation of compounds in plasma.
Peptides or BDCs are incubated at 37° C. in plasma (mouse or human) at low micromolar concentrations for several hours. The stability is quantitatively measured by LC-MS/MS.
Add 8 μL of the 160 μM DMSO stock of peptide or BDC and add 8 μL of 160 μM DMSO stock of 06-34-18-N182 as internal standard to 304 μL of plasma (152 μL*2) for a final concentration of 4 μM (5% DMSO).
Incubate at 37° C. in 100% humidity.
Pipette out 40 μL for 7 timepoints: time 0, 1 h, 2 h, 4 h, 6 h, 8 h, 24 h into a 1.5 mL Eppendorf. Store at −80° C. immediately. (total volume of samples?×40=280 μL).
Add to the sample the extraction solvent. The extraction solvent contains 1 part of water, 3 parts of methanol, and 3 parts of acetonitrile.
To the time course samples add 120 μL of extraction solvent, mix thoroughly with pipette and gently vortex.
Centrifuge for 40 minutes at 14000 rpm at 4° C. […]
It is recommend to follow one transition for the peptide of BDCs to study, and one transition for the internal standard 06-34-18-N182 at the same time. The most relevant Selected Ion Reaction (SIR) and Multiple Reaction Monitoring (MRM) transitions were determined for each peptide or BDC. […]

Starred links: 1 amine or outer side, 2 acyl side, 3 side chain; linkers in the order of their positions; H or OH if unused. Positions of bridges follow the written chain, without caps; N, C: chain ends. Non-standard residues stand in square brackets, D forms with d. Residues, ends and D or L forms follow the SMILES beside them. Chains are numbered I, II in the order given. ξ: configuration not given here. *: point of attachment. Dolaproine = CO[C@@H]([C@@H]1CCCN1)[C@@H](C)C(=O)O; Dil = CC[C@H](C)[C@H](NC)[C@@H](CC(=O)O)OC; TBMB = c1c(C[*:1])cc(C[*:3])cc1C[*:2]; X2 = O=C(CCCC(=O)[*:2])NCCC(=O)[*:1]; PABC = O=C(OCc1ccc(N[*:1])cc1)[*:2]; X1 = C[C@@H](N*)[C@@H](O)c1ccccc1; ξ1Nal = NC(Cc1cccc2ccccc12)C(=O)O; Cit = NC(=O)NCCC[C@H](N)C(=O)O; NMeV = CN[C@H](C(=O)O)C(C)C; ξY = NC(Cc1ccc(O)cc1)C(=O)O; ξTle = CC(C)(C)C(N)C(=O)O; ξF = NC(Cc1ccccc1)C(=O)O; ξE = NC(CCC(=O)O)C(=O)O; ξD = NC(CC(=O)O)C(=O)O; ξN = NC(=O)CC(N)C(=O)O; ξC = NC(CS)C(=O)O; ξA = CC(N)C(=O)O; Sar = CNCC(=O)O

Consider `CC[C@H](C)[C@@H]([C@@H](CC(=O)N1CCC[C@H]1[C@H](OC)[C@@H](C)C(=O)N[C@H](C)[C@@H](O)c1ccccc1)OC)N(C)C(=O)[C@@H](NC(=O)[C@H](C(C)C)N(C)C(=O)OCc1ccc(NC(=O)[C@H](CCCNC(N)=O)NC(=O)[C@@H](NC(=O)CCCC(=O)NCCC(=O)N(C)CC(=O)N(C)CC(=O)N(C)CC(=O)N(C)CC(=O)N(C)CC(=O)N(C)CC(=O)N(C)CC(=O)N(C)CC(=O)N(C)CC(=O)N(C)CC(=O)NC(C)C(=O)NC2CSCc3cc4cc(c3)CSCC(NC(=O)C(C)NC(=O)C(Cc3cccc5ccccc35)NC(=O)C(CCC(=O)O)NC(=O)C(CC(N)=O)NC(=O)C(C)NC2=O)C(=O)NC(CCC(=O)O)C(=O)NC(CC(=O)O)C(=O)NC(Cc2ccccc2)C(=O)NC(Cc2ccc(O)cc2)C(=O)NC(CC(=O)O)C(=O)NC(C(C)(C)C)C(=O)NC(C(N)=O)CSC4)C(C)C)cc1)C(C)C` (some centres unmarked) [Compound I-1a] (I: [Sar][Sar][Sar][Sar][Sar][Sar][Sar][Sar][Sar][Sar][ξA][ξC][ξA][ξN][ξE][ξ1Nal][ξA][ξC][ξE][ξD][ξF][ξY][ξD][ξTle][ξC]-NH2 / II: V[Cit][PABC][NMeV]V[Dil][Dolaproine]-X1; linker I:12-I:18-I:25 via TBMB; linker I:N-II:N via X2), for which the IC50 is 35.7 nM in data set [1]; 197 nM in [2]; over 5000 nM in data set [3]; 219 nM in data set [4]; 15.2 nM in [5]; 21.4 nM in data set [6]. Besides, the 50% inhibitory concentration (IC50) in data set [7] turned out to be 56.2 nM; in data set [8], 211 nM; in data set [9], 24.2 nM; in data set [10], 63.3 nM; in data set [11] it was 102 nM. In data set [12], the “cytotoxic activity over the cell line panel (in words)” value is reported as “works well on all cell lines except HCT-15”. In data set [13], this molecule came in with a half-life at 1 μM of over 24 h. Further, the remaining at 24 h, 1 μM in data set [13] (read-out: % remained after 24 hours incubation) is 96%.

As usually defined, the IC50 is the point on the concentration scale where inhibition reaches its midpoint. For orientation: half-life means how long it takes for the measured level to halve.
